# Key:
# [1] = test system: Plum curculio; experiment: Residual (7-day) contact activity, plum curculio; assay type: in vivo, Conotrachelus nenuphar [Herbst]; details: Conotrachelus nenuphar, 168 h, read-out: Percent Kill
# Description: (§1) Initial Contact Activity: One half gram of test compound was dissolved in 40 ml of acetone and this solution was dispersed in 360 ml of water containing one drop of isooctylphenyl polyethoxyethanol. Aliquots of this solution, which corresponds to 1250 ppm of active ingredient, were diluted with an appropriate amount of water to provide solutions containing various concentrations of active ingredient. Test organisms and techniques were as follows: The activity against the Mexican bean beetle (Epilachna varivestis Muls.) and the southern armyworm (Spodoptera eridania [Cram.]) was evaluated by dipping the leaves of pinto bean plants into the test solution and infesting the leaves with the appropriate immature-form insects when the foiliage had dried; the activity against the pea aphid (Acyrthosiphon pisum [Harris]) was evaluated on broad bean plants whose leaves were dipped before infestation with adult aphids; the activity against two-sotted spider mites (Tetranychus urticae Koch) was evaluated on pinto bean plants whose leaves were dipped after infestation with adult mites; the activity against the milkweed bug (Oncopeltus fasciatus [Dallas]), and the plum curculio (Conotrachelus nenuphar [Herbst]) was evaluated by spraying the test solutions into glass dishes or jars containing the adult insects; the activity against the confused flour beetle (Tribolium confusum duVal) was evaluated by introducing the insects into glass dishes which had been previously sprayed with test solution and allowed to dry. All organisms in the test were maintained in a holding room at 80° F and 50% relative humidity for an exposure period of 48 hours. At the end of this time, the dead and living insects or mites were counted, and the percent kill was calculated.
# (§2) Residual Contact Activity: The residual contact activity of the compounds was determined on the same organisms using the techniques described above, except that in each case the treated surface was allowed to dry and was exposed to normal light and air for seven days before introduction of the mites or insects.
# [2] = test system: Milkweed bug; experiment: Residual (7-day) contact activity, milkweed bug; assay type: in vivo, Oncopeltus fasciatus [Dallas]; details: Oncopeltus fasciatus, 168 h
# Description: as §1, §2
# [3] = test system: Milkweed bug; experiment: Initial contact activity, spray, milkweed bug; assay type: in vivo, Oncopeltus fasciatus [Dallas]; details: Oncopeltus fasciatus, 48 h, initial, MWB, 48 hours, read-out: Percent Kill
# Description: as §1
# [4] = test system: Pea aphid; experiment: Residual (7-day) contact activity, pea aphid; assay type: in vivo, Acyrthosiphon pisum [Harris]; details: Acyrthosiphon pisum, 168 h
# Description: as §1, §2
# [5] = test system: Mexican bean beetle; experiment: Residual (7-day) contact activity, Mexican bean beetle; assay type: in vivo, Epilachna varivestis Muls.; details: Epilachna varivestis, 168 h
# Description: as §1, §2
# [6] = test system: Two-spotted spider mite; experiment: Residual (7-day) contact activity, two-spotted spider mite; assay type: in vivo, Tetranychus urticae Koch; details: Tetranychus urticae, 168 h
# Description: as §1, §2
# [7] = test system: Mexican bean beetle; experiment: Systemic activity, soil-watering, Mexican bean beetle; assay type: in vivo, Epilachna varivestis Muls.; details: Epilachna varivestis, 48 h, systemic, BB, read-out: Percent Kill
# Description: as §1
# (§3) Systemic Activity: Systemic activity was measured using a soil-watering technique. Test organisms were Mexican bean beetle, southern armyworm, pea aphid, and mites on plants as described above in this Example. With appropriate precautions to avoid contact of the solution with the test plant surfaces, 25 ml of a test solution, prepared as above to contain the desired amount of active ingredient, were poured evenly over the surface of the soil in which the plant was growing. The treated plants were maintained under normal growing conditions for three days to permit translocation of the toxicant, after which the leaves were infested. Two days after infestation, counts of living and dead insects were made.
# [8] = test system: Two-spotted spider mite; experiment: Initial contact activity, leaf dip, two-spotted spider mite; assay type: in vivo, Tetranychus urticae Koch; details: Tetranychus urticae, foliar, 48 h, initial, SM, 48 hours, read-out: Percent Kill
# Description: as §1
# [9] = test system: Two-spotted spider mite; experiment: Systemic activity, soil-watering, two-spotted spider mite; assay type: in vivo, Tetranychus urticae Koch; details: Tetranychus urticae, 48 h, systemic, SM, read-out: Percent Kill
# Description: as §1, §3
# [10] = test system: Pea aphid; experiment: Initial contact activity, leaf dip, pea aphid; assay type: in vivo, Acyrthosiphon pisum [Harris]; details: Acyrthosiphon pisum, foliar, 48 h, initial, PA, 48 hours, read-out: Percent Kill
# Description: as §1
# [11] = test system: Southern armyworm; experiment: Initial contact activity, leaf dip, southern armyworm; assay type: in vivo, Spodoptera eridania [Cram.]; details: Spodoptera eridania, foliar, 48 h, initial, AW, 48 hours, read-out: Percent Kill
# Description: as §1
# [12] = test system: Southern armyworm; experiment: Residual (7-day) contact activity, southern armyworm; assay type: in vivo, Spodoptera eridania [Cram.]; details: Spodoptera eridania, 168 h
# Description: as §1, §2
# [13] = test system: Mexican bean beetle; experiment: Initial contact activity, leaf dip, Mexican bean beetle; assay type: in vivo, Epilachna varivestis Muls.; details: Epilachna varivestis, foliar, 48 h, initial, BB, 48 hours, read-out: Percent Kill
# Description: as §1
smiles,measurement,setting,value
"CSC(C)(C)C=NOC(=O)N(C)SN(C)C [Example IV, 2-Methyl-2-(methylthio)propanal O-[(dimethylaminosulfenyl)-(methyl)carbamoyl]oxime]",mortality at 625 ppm,[1],0%
same,mortality at 1250 ppm,"[1]; residual 7-day, PC, 1250 PPM",0%
same,mortality at 625 ppm,"[2]; read-out: Percent Kill, residual 7-day, MWB, 625 PPM",100%
same,mortality at 312 ppm,"[2]; residual 7-day, MWB, 312 PPM, read-out: Percent Kill",65%
same,mortality at 1250 ppm,"[2]; residual 7-day, MWB, 1250 PPM, read-out: Percent Kill",100%
same,mortality at 5 ppm,[3]; 5 PPM,20%
same,mortality at 10 ppm,[3]; 10 PPM,26%
same,mortality at 20 ppm,[3]; 20 PPM,43%
same,mortality at 1250 ppm,[3]; 1250 PPM,100%
same,mortality at 625 ppm,"[4]; read-out: Percent Kill, residual 7-day, PA, 625 PPM",5%
same,mortality at 312 ppm,"[4]; residual 7-day, PA, 312 PPM, read-out: Percent Kill",10%
same,mortality at 1250 ppm,"[4]; residual 7-day, PA, 1250 PPM, read-out: Percent Kill",5%
same,mortality at 625 ppm,"[5]; read-out: Percent Kill, residual 7-day, BB, 625 PPM",40%
same,mortality at 312 ppm,"[5]; residual 7-day, BB, 312 PPM, read-out: Percent Kill",17%
same,mortality at 1250 ppm,"[5]; residual 7-day, BB, 1250 PPM, read-out: Percent Kill",50%
same,mortality at 625 ppm,"[6]; read-out: Percent Kill, residual 7-day, SM, 625 PPM",0%
same,mortality at 39 ppm,"[6]; residual 7-day, SM, 39 PPM, read-out: Percent Kill",18%
same,mortality at 156 ppm,"[6]; residual 7-day, SM, 156 PPM, read-out: Percent Kill",52%
same,mortality at 1250 ppm,"[6]; residual 7-day, SM, 1250 PPM, read-out: Percent Kill",100%
same,mortality at 39 ppm,[7]; 39 PPM,100%
same,mortality at 312 ppm,[7]; 312 PPM,100%
same,mortality at 5 ppm,[8]; 5 PPM,17%
same,mortality at 10 ppm,[8]; 10 PPM,36%
same,mortality at 20 ppm,[8]; 20 PPM,83%
same,mortality at 39 ppm,[8]; 39 PPM,100%
same,mortality at 156 ppm,[8]; 156 PPM,0%
same,mortality at 1250 ppm,[8]; 1250 PPM,100%
same,mortality at 5 ppm,[9]; 5 PPM,100%
same,mortality at 39 ppm,[9]; 39 PPM,100%
same,mortality at 312 ppm,[9]; 312 PPM,100%
same,mortality at 20 ppm,[10]; 20 PPM,0%
same,mortality at 39 ppm,[10]; 39 PPM,5%
same,mortality at 156 ppm,[10]; 156 PPM,95%
same,mortality at 1250 ppm,[10]; 1250 PPM,100%
same,mortality at 156 ppm,[11]; 156 PPM,0%
same,mortality at 312 ppm,[11]; 312 PPM,0%
same,mortality at 625 ppm,[11]; 625 PPM,0%
same,mortality at 1250 ppm,[11]; 1250 PPM,12%
same,mortality at 625 ppm,"[12]; read-out: Percent Kill, residual 7-day, AW, 625 PPM",0%
same,mortality at 1250 ppm,"[12]; residual 7-day, AW, 1250 PPM, read-out: Percent Kill",20%
same,mortality at 20 ppm,[13]; 20 PPM,5%
same,mortality at 39 ppm,[13]; 39 PPM,6%
same,mortality at 156 ppm,[13]; 156 PPM,39%
same,mortality at 1250 ppm,[13]; 1250 PPM,100%
